Laboratory results taken from ChEMBL document CHEMBL1125779, “Synthesis and evaluation of some nitrobenzenesulfonamides containing nitroisopropyl and (ureidooxy)methyl groups as novel hypoxic cell selective cytotoxic agents” (J Med Chem, 1991).

Test: Partition coefficient was measured in n-octanol at the PH 7.4 buffer
Type: physicochemical
Conditions: octanol/water

Row | Partition coefficient | Structure (SMILES)
1 | 0.37 | CN(CCN)S(=O)(=O)c1ccc(C(C)(C)[N+](=O)[O-])c([N+](=O)[O-])c1
2 | 0.28 | CNCCN(C)S(=O)(=O)c1ccc(CONC(N)=O)c([N+](=O)[O-])c1
3 | 0.4 | O=[N+]([O-])c1nccn1CC(O)CN1CCCCC1 (stereo not drawn) [PIMONIDAZOLE]
